Where no end group is shown, it is not given here. The star is where a group is joined. Octanoyl = CCCCCCCC(=O)*
How the values were obtained:
[1] = system: serum endotoxin; test: Serum endotoxin levels (LAL assay); type: in vivo; settings: Day 7 after 10 Gy WBI; 20 nmol/rat for 6 days from 24 h
Description: (§1) Animal model of whole body irradiation. Rats were exposed to whole body irradiation (WBI) of 10 Gray (Gy) using a Gammacell® 1000 Irradiator (Atomic Energy of Canada Ltd) [radiation source: Cesium-137 (^137Cs)] delivered at a dose rate of about 2.5 GY/min. The animals were sedated with intra-peritoneal pentobarbital (40 mg/kg BW) prior to irradiation. During radiation, the container rotated continuously in front of the radiation source for even exposure. The animals were then returned to their cages, and food and water were provided.
Blood and Tissue Collection after WBI. Rats exposed to 10 Gy WBI were treated with 20 nmol/rat human ghrelin once a day for 6 days starting at 24 h after radiation. At the 7th day, rats were euthanized, and blood, liver and the small intestine were removed under sterile conditions. The blood was allowed to clot and following centrifugation, the serum was transferred into pyrogenic free sterile tubes, and stored at −80° C. until further analysis. […]
Serum endotoxin levels. Bacterial endotoxin levels in the serum were determined by the endpoint Chromogenic Limulus Amebocyte Lysate (LAL) assay (QC-1000, Lonza, Walkervilles, Md. USA) and expressed in EU/ml. Samples were analyzed according to manufacturer's instruction. Endotoxin levels which are ≥0.1EU/ml can be measured using this assay.

[2] = system: Bax; test: Western blot of jejunal Bax protein; type: in vivo, rat; settings: jejunum, Day 7 after 10 Gy WBI; slightly elevated in vehicle
Description: as §1
Blood and Tissue Collection after WBI. Rats exposed to 10 Gy WBI were treated with 20 nmol/rat human ghrelin once a day for 6 days starting at 24 h after radiation. At the 7th day, rats were euthanized, and blood, liver and the small intestine were removed under sterile conditions. […]
Western blot analysis. […] After overnight incubation with the primary antibodies at 4° C., the membranes were washed with TBS-T Immunoreactive bands were detected using HRP-linked secondary antibody (Southern Biotech, Birmingham, Ala.) and the Enhanced Chemiluminescence (ECL) Western blot detection kit (Amersham, Piscataway, N.J.). The immunoblots were exposed to X-ray film and analyzed with the NIH Image J analysis system. […]

[3] = system: rat jejunum; test: Histopathology of jejunum after WBI (H&E, PAS); type: in vivo; settings: Day 7 after 10 Gy WBI
Description: as §1
(§2) Blood and Tissue Collection after WBI. Rats exposed to 10 Gy WBI were treated with 20 nmol/rat human ghrelin once a day for 6 days starting at 24 h after radiation. At the 7th day, rats were euthanized, and blood, liver and the small intestine were removed under sterile conditions. The blood was allowed to clot and following centrifugation, the serum was transferred into pyrogenic free sterile tubes, and stored at −80° C. until further analysis. Liver (0.25 g) was snap-frozen in liquid nitrogen and stored at −80° C. for subsequent bacterial translocation analysis. Small intestine, 10-15 cm of the ileum, was harvested for gut permeability studies, 10 cm of jejunum was collected for histopathology, and the remaining 10 cm jejunal segment each was collected for RNA and protein analyses.
Histopathology. Jejunal segments were fixed in 1:10 buffered formalin and embedded in paraffin. Tissue blocks were sectioned at a thickness of 5 μm, transferred to glass slides, and stained with hematoxylin and eosin (H&E). The sections were observed under 100× magnification using a Nikon Eclipse Ti inverted microscope equipped with the Nikon Digital Sight Camera (Nikon Inc. Melville, N.Y.). Villus height was determined by measuring the distance from villus-crypt junction to the villus tip and crypt depth was determined by the distance from villus-crypt junction to basal crypt cells using the Nikon software. For each rat, 100 measurements of villus height and crypt depth were obtained from 5 circumferences. Periodic Acid Schiff (PAS) stained sections were used to quantify the number of goblet cells per villus. Three rats in each group were used to calculate the mean.

[4] = system: serum albumin; test: Serum albumin level after WBI; type: in vivo, rat; settings: Day 7 after 10 Gy WBI; WBI decreased it by 19%
Description: as §1
Blood and Tissue Collection after WBI. Rats exposed to 10 Gy WBI were treated with 20 nmol/rat human ghrelin once a day for 6 days starting at 24 h after radiation. At the 7th day, rats were euthanized, and blood, liver and the small intestine were removed under sterile conditions. The blood was allowed to clot and following centrifugation, the serum was transferred into pyrogenic free sterile tubes, and stored at −80° C. until further analysis. Liver (0.25 g) was snap-frozen in liquid nitrogen and stored at −80° C. for subsequent bacterial translocation analysis. […]
Serum glucose and albumin levels. Serum levels of glucose and albumin were determined using Liquid Glucose Hexokinase Reagent Set and Albumin Reagent Set (Pointe Scientific, Inc.) respectively according to manufacturer's instructions.

[5] = Percent body weight change after WBI; type: in vivo, rat; settings: 10 Gy WBI rats; treatment starting at 24 h; 30 day period
Description: as §1
Survival study. To assess the survival benefits of human ghrelin, animals were exposed to 10 Gy WBI and treated with human ghrelin (20 nmol/rat) subcutaneously once a day, with the first dose given either at 24 h or 48 h after WBI, for 6 days and observed for 30 days, and the survival recorded. The surviving animals beyond 30 days were then euthanized. Rats in the survival study were monitored twice daily and weighed once a day during the 30 day survival period. Net weight change was calculated as: % Weight Change ((weight at each day−weight at day 0)/weight at day 0)×100.

[6] = system: CD73; test: Jejunal CD73 mRNA expression by real time PCR; type: in vivo, rat; settings: jejunum, Day 7 after 10 Gy WBI; vehicle decreased by 62%
Description: as §1, §2
Total RNA extraction and real time PCR. […]

ghrelin (GSS(Octanoyl)FLSPEHQRVQQRKESKKPPAKLQPR; listed as Homo sapiens) [human ghrelin]
serum endotoxin levels, decrease [1]: 42% | Bax protein [2]: remain same as sham | intestinal integrity and morphology (H&E) ([3]; 6 days treatment starting at 24 h): improved the intestinal integrity and morphology | goblet cell number/villus, increase from Sham ([3]; jejunum PAS stain, vehicle 29%): 5% | crypt depth, reduction from Sham ([3]; jejunum, 20 nmol/rat for 6 days from 24 h, vehicle 14%): 2.8% | villus length, reduction from Sham ([3]; jejunum, 20 nmol/rat for 6 days from 24 h, vehicle 19%): 2.0% | serum albumin levels [4]: restored to sham values | percent body weight change [5]: consistent increase in the body weight | CD73 mRNA expression, restored by [6]: 70%
